According to patent US8153693B2, “Compounds for the selective treatment of the intestinal immuno-inflammatory component of the celiac disease” (Giuliani International Limited, priority 2007, dated 2012):
Entries after “also recorded” stand apart in the source; their conditions may differ.

Assays:
HT-29 STD cells [1] = assay: Cytotoxic effect on epithelial cells seen in the HT-29 experiments; format: cell-based; settings: 30 mM
Description: After 24 h of culture, HT-29 STD cells were treated during 24 h with the compounds A, B, C, D and F, at 30 mM. […] The pH of the drug solutions was adjusted to 7.4 with NaOH. Cells were fixed in PFA 4%, permeabilized in PBS containing 0.1% Triton X-100™ at 4° C. and then incubated with goat normal serum and blocking buffer (1% BSA in PBS) to minimize non-specific adsorption of the antibody.
(§1) After 24 h of culture, HT-29 STD cells were treated during 24 h with the compounds A, B, C, D, F, at a concentration of 30 mM. […] The pH of the drug solutions was adjusted to 7.4 with NaOH. Cells undergoing apoptosis were identified by enzymatic labelling of DNA strands using a terminal transferase dUTP nick end labelling assay (TUNEL assay, Roche Diagnostics™, Meylan, France). Counts of at least 500 cells/sample were systematically performed blindly in one experiment. The results were expressed as the mean±SEM of the number of stained cells.

PPARγ [2] = target: T1, PPARγ (Homo sapiens, UniProt P37231); assay: PPARγ activation, PPRE luciferase reporter in transfected HT-29 STD cells (Example 5); format: cell-based; settings: 30 mM; for increase of the reporter gene activity: 24 hours, versus non-stimulated cells
T1 construct: HT-29 STD cells were transiently transfected using the Effectene™ transfection reagent; endogenous in cells; host or cells: HT-29 STD (ATCC HTB-38)
T1 sequence (P37231 1-505): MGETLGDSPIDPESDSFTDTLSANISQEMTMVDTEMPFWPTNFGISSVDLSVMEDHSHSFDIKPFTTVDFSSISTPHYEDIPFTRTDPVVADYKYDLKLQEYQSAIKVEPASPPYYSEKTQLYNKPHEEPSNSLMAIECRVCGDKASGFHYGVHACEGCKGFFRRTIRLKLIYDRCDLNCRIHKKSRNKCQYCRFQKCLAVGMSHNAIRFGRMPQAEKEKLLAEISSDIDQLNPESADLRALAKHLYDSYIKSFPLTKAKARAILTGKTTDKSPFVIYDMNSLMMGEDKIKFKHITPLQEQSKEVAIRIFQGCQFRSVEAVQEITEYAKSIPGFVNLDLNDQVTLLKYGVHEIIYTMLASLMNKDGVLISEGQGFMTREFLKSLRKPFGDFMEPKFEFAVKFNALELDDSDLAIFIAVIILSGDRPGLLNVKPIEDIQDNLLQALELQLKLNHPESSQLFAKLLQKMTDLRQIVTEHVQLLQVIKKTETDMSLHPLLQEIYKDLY
Description: (§2) The colon cell line HT-29 STD (ATCC HTB-38) was routinely grown in DMEM supplemented with 10% heat-FCS, and antibiotics. Cells were grown in monolayers, incubated at 37° C. in 5% CO2 and 95% relative humidity.
HT-29 STD cells were transiently transfected using the Effectene™ transfection reagent (Qiagen™) according to instructions from the manufacturer. To test PPARγ activation, we performed transfection with 500 ng of a minimal promoter construct containing two copies of PPRE obtained from the cytochrome p450 4A (2×CYP). The renilla luciferase plasmid (0.1 μg/well) was also transfected as an internal control for monitoring transfection efficiency and for normalizing the firefly luciferase activity. Transfected cells were left for 48 hours incubation at 37° C. […] The pH of the drug solutions was adjusted to 7.4 with NaOH. Total cell extracts were prepared using the Passive Lysis Buffer (Promega™, Madison, Wis.). Luciferase activity was assayed in 20 μl of the extract using the Promega™ Dual Luciferase assay system according to the manufacturer's protocol. Transfections were assayed in triplicate in at least three separate experiments. The luciferase activity was expressed as fold of the activity obtained in cells treated with the different molecules divided by luciferase activity from non-stimulated cells.
We investigated PPARγ transcriptional activity by transient transfections of epithelial cells with the renilla luciferase PPRE plasmids. Cells were stimulated with the different molecules during 24 hours.

PPARγ [3] = assay: PPARγ expression by western blot in HT-29 cells; format: cell-based; settings: for induction of PPARγ expression at the protein levels (in words): HT-29 cell line; for mean induction of PPARγ protein levels quantified by western blot: cells treated during 24 hours
Description: as §2
The total proteins were obtained by cell homogenization in an extraction buffer consisting of PBS with 2% Triton™, Phenyl Methyl Sulphonyl Fluoride (PMSF) 100 mM and a classical protease inhibitor cocktail. The total proteins were then separated by polyacrylamide gel electrophoresis and electroblotted. Polyvinylidendifluoride (PVDF) membranes were incubated overnight with rabbit polyclonal primary antibody directed against PPARγ (dilution 1/500, TEBU, Le Perray en Yveline, France). β-actin was detected using a rabbit monoclonal primary antibody diluted at 1/10,000 (Sigma). Immunodetection with a secondary peroxidase-conjugated antibody (1/1000, Dako™, Trappes, France) and chemiluminescence was performed according to the manufacturer's protocol (ECL™, Amersham Pharmacia Biotech™, Orsay, France). Optical density values of PPARγ were given for each condition in proportion to the quantity of the internal control β-actin in the same sample.

[4] = Solubility of the molecules in the cell experiments; format: physicochemical; settings: reason for exclusion from the cell experiments
HT-29 STD cells [5] = assay: Detection of apoptosis, TUNEL assay; format: cell-based; settings: 30 mM, 24 h
Description: as §1

COc1ccc(N)cc1C(=O)NO [A]
cytotoxic effect on epithelial cells (HT-29 STD cells [1]): rapid cytotoxic effects; also recorded: direct cytotoxic effects

COc1cc(N)ccc1C(=O)NO [B]
cytotoxic effect on epithelial cells (HT-29 STD cells [1]): rapid cytotoxic effects; also recorded: direct cytotoxic effects

Nc1cc2c(c(C(=O)O)c1)OCC2 [C]
PPARγ activation (in words) (PPARγ [2]): induce PPARγ activation | increase of the reporter gene activity (PPARγ [2]): two-fold | induction of PPARγ expression at the protein levels (in words) (PPARγ [3]): induce PPARγ expression | mean induction of PPARγ protein levels quantified by western blot (PPARγ [3]): 2 fold

CCOc1ccc(N)cc1C(=O)NO [Compound D]
cytotoxic effect on epithelial cells (HT-29 STD cells [1]): rapid cytotoxic effect; also recorded: direct cytotoxic effects | induction of PPARγ expression at the protein levels (in words) (PPARγ [3]): induce PPARγ expression | mean induction of PPARγ protein levels quantified by western blot (PPARγ [3]): 2 fold

CC1(C)OC(=O)c2cc(N)ccc2O1 [E]
solubility [4]: poor solubility

CC(C)Oc1ccc(N)cc1C(=O)O [F]
PPARγ activation (in words) (PPARγ [2]): induce PPARγ activation | increase of the reporter gene activity (PPARγ [2]): two-fold | induction of PPARγ expression at the protein levels (in words) (PPARγ [3]): induce PPARγ expression | mean induction of PPARγ protein levels quantified by western blot (PPARγ [3]): 2 fold | apoptosis, share of epithelial cells (TUNEL) (HT-29 STD cells [5]): 80%

CC(C)N(c1ccc(O)c(C(=O)O)c1)C(C)C [G]
cytotoxic effect on epithelial cells (HT-29 STD cells [1]): rapid cytotoxic effect; also recorded: direct cytotoxic effects | solubility [4]: poor solubility
